Values quoted from earlier work as cited in patent US10022349B2, “Cadotril particles” (Johnson & Johnson Consumer Inc., priority 2014, dated 2018).

What was measured:
[1] = poor aqueous solubility, dissolution rate limited absorption

solubility in water (in words) | water solubility (room temperature) | Biopharmaceutical Classification System class [1] | SMILES
insoluble in water |  |  | CC(=O)SC[C@H](Cc1ccccc1)C(=O)NCC(=O)OCc1ccccc1 [dexecadotril, N—[(R)-2-Benzyl-3-(acetylthio)propionyl]glycine benzyl ester]
insoluble in water |  |  | CC(=O)SC[C@@H](Cc1ccccc1)C(=O)NCC(=O)OCc1ccccc1 [ecadotril, N—[(S)-2-[(Acetylthio)methyl]-1-oxo-3-phenylpropyl]glycinebenzyl ester]
insoluble in water | about 10 micrograms/ml | class II | CC(=O)SCC(Cc1ccccc1)C(=O)NCC(=O)OCc1ccccc1 (racemic) [Racecadotril, (RS)-benzyl N-[3-(acetylthio)-2-benzylpropanoyl]glycinate]
